The target in one assay is T1, HiBit-BRM fusion protein (Homo sapiens, UniProt P51531).
T1 construct: expressed in transfected cells
Nature of the assay: HiBiT-BRM cell-based degradation assay (Nano-Glo HiBiT Lytic Detection, 24 h). The note with it: stable HeLa cell line expressing HiBiT-BRM, top dose 30 μM. The method, boiled down: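 HiBiT-tagged BRM levels in a stable HeLa line are measured after one day of compound treatment (up to 30 μM final, duplicate 10-point curves) by adding LgBiT lytic reagent and reading bioluminescence; values are expressed relative to vehicle and a 2 μM degrader control.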

Assay [1] concerns the target T2, HiBit-BRG1 fusion protein (Homo sapiens, UniProt P51532).
T2 construct: expressed in transfected cells
As to the kind of experiment: HiBiT-BRG1 cell-based degradation assay (Nano-Glo HiBiT Lytic Detection, 24 h). The note with it: stable HeLa cell line expressing HiBit-BRG1 and LgBit, top dose 30 μM, read-out: BRG1 HiBit Degradation Maximum (%). The method, boiled down: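 HeLa cells stably expressing HiBiT-BRG1 plus LgBiT were treated with 10-point 3-fold compound dilutions (top 30 μM final) for 24 h. Lytic Nano-Glo HiBiT luminescence was read. % degradation was normalised between DMSO (high control) and 2 μM of a reference BRM/BRG1 degrader (low control).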

Molecules are shown by their SMILES.

T2 sequence (P51532 whole entry, the tested form may be a part): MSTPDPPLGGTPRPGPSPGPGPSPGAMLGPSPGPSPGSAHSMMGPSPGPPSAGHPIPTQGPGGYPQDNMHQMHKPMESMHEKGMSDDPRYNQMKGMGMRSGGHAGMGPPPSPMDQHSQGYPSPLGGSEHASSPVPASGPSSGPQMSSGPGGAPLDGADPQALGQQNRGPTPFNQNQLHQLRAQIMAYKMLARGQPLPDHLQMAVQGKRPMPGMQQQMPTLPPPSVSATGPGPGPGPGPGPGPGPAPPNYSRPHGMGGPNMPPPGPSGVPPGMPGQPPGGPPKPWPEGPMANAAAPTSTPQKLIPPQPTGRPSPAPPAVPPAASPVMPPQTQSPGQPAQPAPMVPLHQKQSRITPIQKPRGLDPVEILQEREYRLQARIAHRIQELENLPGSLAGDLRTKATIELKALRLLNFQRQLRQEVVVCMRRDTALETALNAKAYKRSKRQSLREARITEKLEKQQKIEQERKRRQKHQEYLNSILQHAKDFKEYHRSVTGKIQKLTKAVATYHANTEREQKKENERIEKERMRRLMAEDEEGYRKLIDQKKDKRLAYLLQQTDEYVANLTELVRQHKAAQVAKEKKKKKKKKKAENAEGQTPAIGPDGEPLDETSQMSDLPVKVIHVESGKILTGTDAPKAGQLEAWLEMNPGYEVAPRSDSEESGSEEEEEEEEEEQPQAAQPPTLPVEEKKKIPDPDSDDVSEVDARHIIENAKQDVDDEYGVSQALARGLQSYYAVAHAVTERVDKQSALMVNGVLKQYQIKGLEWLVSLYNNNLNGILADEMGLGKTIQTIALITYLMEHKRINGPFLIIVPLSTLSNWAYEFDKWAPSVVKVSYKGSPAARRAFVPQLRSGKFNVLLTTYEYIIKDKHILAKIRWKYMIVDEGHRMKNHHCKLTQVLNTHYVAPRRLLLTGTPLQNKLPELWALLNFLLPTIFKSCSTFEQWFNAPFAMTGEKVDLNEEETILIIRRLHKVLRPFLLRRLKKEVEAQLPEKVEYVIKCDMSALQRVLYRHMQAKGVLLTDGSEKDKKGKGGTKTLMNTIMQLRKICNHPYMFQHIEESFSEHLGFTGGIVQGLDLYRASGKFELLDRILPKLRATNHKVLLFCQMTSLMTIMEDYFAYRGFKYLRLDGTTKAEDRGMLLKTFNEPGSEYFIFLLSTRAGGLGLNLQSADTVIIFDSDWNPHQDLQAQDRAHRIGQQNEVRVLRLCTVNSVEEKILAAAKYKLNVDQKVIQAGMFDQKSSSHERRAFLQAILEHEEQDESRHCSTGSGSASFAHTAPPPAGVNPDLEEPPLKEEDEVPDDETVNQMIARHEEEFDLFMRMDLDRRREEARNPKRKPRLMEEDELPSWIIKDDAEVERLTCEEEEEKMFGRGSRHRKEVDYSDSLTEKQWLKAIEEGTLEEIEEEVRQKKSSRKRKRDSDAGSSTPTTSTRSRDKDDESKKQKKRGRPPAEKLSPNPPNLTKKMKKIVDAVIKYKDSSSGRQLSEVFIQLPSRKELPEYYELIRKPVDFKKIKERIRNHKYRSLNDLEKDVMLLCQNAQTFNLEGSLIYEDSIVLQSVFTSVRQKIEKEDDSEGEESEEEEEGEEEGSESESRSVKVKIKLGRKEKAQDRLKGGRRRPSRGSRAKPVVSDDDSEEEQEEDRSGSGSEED
T1 sequence (P51531 whole entry, the tested form may be a part): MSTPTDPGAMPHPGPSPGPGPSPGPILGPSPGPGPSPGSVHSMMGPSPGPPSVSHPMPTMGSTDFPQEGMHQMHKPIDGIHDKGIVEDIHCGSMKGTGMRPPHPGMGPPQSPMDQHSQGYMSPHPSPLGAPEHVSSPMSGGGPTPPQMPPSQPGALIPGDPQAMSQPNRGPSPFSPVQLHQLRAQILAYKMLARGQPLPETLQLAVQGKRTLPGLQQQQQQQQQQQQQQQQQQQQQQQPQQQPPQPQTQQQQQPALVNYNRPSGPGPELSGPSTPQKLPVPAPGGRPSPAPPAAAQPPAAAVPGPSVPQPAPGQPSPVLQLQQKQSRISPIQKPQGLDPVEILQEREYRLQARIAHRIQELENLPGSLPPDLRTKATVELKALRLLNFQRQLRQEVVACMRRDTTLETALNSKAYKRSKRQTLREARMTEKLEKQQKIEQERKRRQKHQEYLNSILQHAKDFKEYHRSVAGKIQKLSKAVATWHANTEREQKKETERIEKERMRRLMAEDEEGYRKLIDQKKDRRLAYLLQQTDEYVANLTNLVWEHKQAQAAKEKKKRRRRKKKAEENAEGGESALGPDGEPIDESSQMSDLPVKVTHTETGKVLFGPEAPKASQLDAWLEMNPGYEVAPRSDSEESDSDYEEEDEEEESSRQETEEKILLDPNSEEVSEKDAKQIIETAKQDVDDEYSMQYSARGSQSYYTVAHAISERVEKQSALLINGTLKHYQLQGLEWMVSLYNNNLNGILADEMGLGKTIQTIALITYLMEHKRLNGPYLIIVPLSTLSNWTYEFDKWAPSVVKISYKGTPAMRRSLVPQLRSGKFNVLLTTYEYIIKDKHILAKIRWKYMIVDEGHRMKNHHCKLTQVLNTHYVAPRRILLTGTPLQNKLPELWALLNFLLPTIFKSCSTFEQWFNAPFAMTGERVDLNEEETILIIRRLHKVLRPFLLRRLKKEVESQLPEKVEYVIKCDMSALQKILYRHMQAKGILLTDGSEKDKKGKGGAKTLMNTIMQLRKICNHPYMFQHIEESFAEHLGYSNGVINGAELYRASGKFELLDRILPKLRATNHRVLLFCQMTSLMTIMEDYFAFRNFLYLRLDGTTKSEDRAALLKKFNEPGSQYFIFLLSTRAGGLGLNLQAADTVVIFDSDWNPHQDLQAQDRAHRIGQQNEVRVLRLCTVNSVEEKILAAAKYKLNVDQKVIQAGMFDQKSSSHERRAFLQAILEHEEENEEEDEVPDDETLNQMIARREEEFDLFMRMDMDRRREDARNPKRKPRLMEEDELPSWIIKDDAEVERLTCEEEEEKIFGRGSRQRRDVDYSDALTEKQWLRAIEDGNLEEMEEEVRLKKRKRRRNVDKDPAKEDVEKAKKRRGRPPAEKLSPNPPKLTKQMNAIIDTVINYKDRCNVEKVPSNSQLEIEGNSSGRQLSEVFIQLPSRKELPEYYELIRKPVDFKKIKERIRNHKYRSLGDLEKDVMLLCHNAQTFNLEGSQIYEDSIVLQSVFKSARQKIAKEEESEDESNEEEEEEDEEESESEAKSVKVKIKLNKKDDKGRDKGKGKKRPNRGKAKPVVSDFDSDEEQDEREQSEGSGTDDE

In the case of `Nc1nnc(-c2ccccc2O)cc1OCC12CC(CNC(=O)CCOCCOCCOc3ccc4c(c3)C(=O)N(C3CCC(=O)NC3=O)C4=O)(C1)C2` (centres unmarked) [Compound 1, N-[[3-([[3-amino-6-(2-hydroxyphenyl)pyridazin-4-yl]oxy]methyl)bicyclo[1.1.1]pentan-1-yl]methyl]-3-[2-(2-[[2-(2,6-dioxopiperidin-3-yl)-1,3-dioxoisoindol-5-yl]oxy]ethoxy)ethoxy]propanamide], the “BRM HiBit Degradation Maximum (%)” value on HiBit-BRM fusion protein is “C (“C” indicates maximum degradation < 50%)”. Moreover, in assay [1], the Dmax was less than 50%.

With `CN(CCNC(=O)C12CC(COc3cc(-c4ccccc4O)nnc3N)(C1)C2)CCOCCOc1cccc2c1C(=O)N(C1CCC(=O)NC1=O)C2=O` (centres unmarked) [Compound 79, 3-(((3-amino-6-(2-hydroxyphenyl)pyridazin-4-yl)oxy)methyl)-N-(2-((2-(2-((2-(2,6-dioxopiperidin-3-yl)-1,3-dioxoisoindolin-4-yl)oxy)ethoxy)ethyl)(methyl)amino)ethyl)bicyclo[1.1.1]pentane-1-carboxamide], on HiBit-BRM fusion protein, the “BRM HiBit Degradation Maximum (%)” value is listed as “C (“C” indicates maximum degradation < 50%)”. Further, the Dmax in assay [1] was less than 50%.

For the molecule `Nc1nnc(-c2ccccc2O)cc1OCC12CC(C(=O)N3CC(CCOc4cccc5c4C(=O)N(C4CCC(=O)NC4=O)C5=O)C3)(C1)C2` (centres unmarked) [Compound 78, 4-(2-(1-(3-(((3-amino-6-(2-hydroxyphenyl)pyridazin-4-yl)oxy)methyl)bicyclo[1.1.1]pentane-1-carbonyl)azetidin-3-yl)ethoxy)-2-(2,6-dioxopiperidin-3-yl)isoindoline-1,3-dione], the “BRM HiBit Degradation Maximum (%)” value at HiBit-BRM fusion protein is recorded as “C (“C” indicates maximum degradation < 50%)”. The Dmax in assay [1] is less than 50%.

With `Nc1nnc(-c2ccccc2O)cc1OCC12CC(C(=O)NCCOc3ccc4c(c3)C(=O)N(C3CCC(=O)NC3=O)C4=O)(C1)C2` (centres unmarked) [Compound 55, 3-(((3-amino-6-(2-hydroxyphenyl)pyridazin-4-yl)oxy)methyl)-N-(2-((2-(2,6-dioxopiperidin-3-yl)-1,3-dioxoisoindolin-5-yl)oxy)ethyl)bicyclo[1.1.1]pentane-1-carboxamide], the “BRM HiBit Degradation Maximum (%)” value at HiBit-BRM fusion protein is given as “C (“C” indicates maximum degradation < 50%)”. The Dmax in assay [1] was less than 50%.

Take `Cc1ncsc1-c1ccc(CNC(=O)[C@@H]2C[C@@H](O)CN2C(=O)[C@@H](NC(=O)CCCCC(=O)NCC23CC(COc4cc(-c5ccccc5O)nnc4N)(C2)C3)C(C)(C)C)cc1` [Compound 35, N1-((3-(((3-amino-6-(2-hydroxyphenyl)pyridazin-4-yl)oxy)methyl)bicyclo[1.1.1]pentan-1-yl)methyl)-N6-((S)-1-((2S,4R)-4-hydroxy-2-((4-(4-methylthiazol-5-yl)benzyl)carbamoyl)pyrrolidin-1-yl)-3,3-dimethyl-1-oxobutan-2-yl)adipamide]: the “BRM HiBit Degradation Maximum (%)” value at HiBit-BRM fusion protein is listed as “C (“C” indicates maximum degradation < 50%)”. In assay [1], the Dmax is less than 50%.

As for `Cc1ncsc1-c1ccc(CNC(=O)[C@@H]2C[C@@H](O)CN2C(=O)[C@@H](NC(=O)CCC(=O)NC23CC(CCOc4cc(-c5ccccc5O)nnc4N)(C2)C3)C(C)(C)C)cc1` [Compound 42, N1-(3-(2-((3-amino-6-(2-hydroxyphenyl)pyridazin-4-yl)oxy)ethyl)bicyclo[1.1.1]pentan-1-yl)-N4-((S)-1-((2S,4R)-4-hydroxy-2-((4-(4-methylthiazol-5-yl)benzyl)carbamoyl)pyrrolidin-1-yl)-3,3-dimethyl-1-oxobutan-2-yl)succinamide], the “BRM HiBit Degradation Maximum (%)” value at HiBit-BRM fusion protein is “C (“C” indicates maximum degradation < 50%)”. Moreover, in assay [1], the Dmax is less than 50%.

For `CN(CCNC(=O)COc1cccc2c1C(=O)N(C1CCC(=O)NC1=O)C2=O)CCNC(=O)C12CC(COc3cc(-c4ccccc4O)nnc3N)(C1)C2` (centres unmarked) [Compound 75, 3-(((3-amino-6-(2-hydroxyphenyl)pyridazin-4-yl)oxy)methyl)-N-(2-((2-(2-((2-(2,6-dioxopiperidin-3-yl)-1,3-dioxoisoindolin-4-yl)oxy)acetamido)ethyl)(methyl)amino)ethyl)bicyclo[1.1.1]pentane-1-carboxamide], the “BRM HiBit Degradation Maximum (%)” value on HiBit-BRM fusion protein is “C (“C” indicates maximum degradation < 50%)”. Moreover, the Dmax in assay [1] was less than 50%.

On to `Cc1ncsc1-c1ccc(CNC(=O)[C@@H]2C[C@@H](O)CN2C(=O)[C@@H](NC(=O)CCCC(=O)NC23CC(CCOc4cc(-c5ccccc5O)nnc4N)(C2)C3)C(C)(C)C)cc1` [Compound 46, N1-(3-(2-((3-amino-6-(2-hydroxyphenyl)pyridazin-4-yl)oxy)ethyl)bicyclo[1.1.1]pentan-1-yl)-N5-((S)-1-((2S,4R)-4-hydroxy-2-((4-(4-methylthiazol-5-yl)benzyl)carbamoyl)pyrrolidin-1-yl)-3,3-dimethyl-1-oxobutan-2-yl)glutaramide], for which the “BRM HiBit Degradation Maximum (%)” value on HiBit-BRM fusion protein is “B (“B” indicates maximum degradation ≥ 50%)”. In addition, the Dmax in assay [1] is less than 50%.

With `Nc1nnc(-c2ccccc2O)cc1OCC12CC(CNC(=O)CCOCCOCCNc3cccc4c3C(=O)N(C3CCC(=O)NC3=O)C4=O)(C1)C2` (centres unmarked) [Compound 11, N-[[3-([[3-amino-6-(2-hydroxyphenyl)pyridazin-4-yl]oxy]methyl)bicyclo[1.1.1]pentan-1-yl]methyl]-3-[2-(2-[[2-(2,6-dioxopiperidin-3-yl)-1,3-dioxoisoindol-4-yl]amino]ethoxy)ethoxy]propanamide], at HiBit-BRM fusion protein, the “BRM HiBit Degradation Maximum (%)” value was “C (“C” indicates maximum degradation < 50%)”. In addition, the Dmax in assay [1] was less than 50%.

Turning to `Cc1ncsc1-c1ccc(CNC(=O)[C@@H]2C[C@@H](O)CN2C(=O)[C@@H](NC(=O)COCCOCCOCCOCC(=O)NCC23CC(COc4cc(-c5ccccc5O)nnc4N)(C2)C3)C(C)(C)C)cc1` [Compound 36, N1-((3-(((3-amino-6-(2-hydroxyphenyl)pyridazin-4-yl)oxy)methyl)bicyclo[1.1.1]pentan-1-yl)methyl)-N14-((S)-1-((2S,4R)-4-hydroxy-2-((4-(4-methylthiazol-5-yl)benzyl)carbamoyl)pyrrolidin-1-yl)-3,3-dimethyl-1-oxobutan-2-yl)-3,6,9,12-tetraoxatetradecanediamide], the “BRM HiBit Degradation Maximum (%)” value at HiBit-BRM fusion protein is recorded as “C (“C” indicates maximum degradation < 50%)”. Also, the Dmax in assay [1] was less than 50%.

As for `Nc1nnc(-c2ccccc2O)cc1OCC12CC(C(=O)NCCCC#Cc3ccc4c(c3)C(=O)N(C3CCC(=O)NC3=O)C4=O)(C1)C2` (centres unmarked) [Compound 89, 3-(((3-amino-6-(2-hydroxyphenyl)pyridazin-4-yl)oxy)methyl)-N-(5-(2-(2,6-dioxopiperidin-3-yl)-1,3-dioxoisoindolin-5-yl)pent-4-yn-1-yl)bicyclo[1.1.1]pentane-1-carboxamide], the “BRM HiBit Degradation Maximum (%)” value at HiBit-BRM fusion protein is “C (“C” indicates maximum degradation < 50%)”. The Dmax in assay [1] was less than 50%.

With `Nc1nnc(-c2ccccc2O)cc1OCC12CC(C(=O)N3CC(COc4ccc5c(c4)C(=O)N(C4CCC(=O)NC4=O)C5=O)C3)(C1)C2` (centres unmarked) [Compound 86, 5-((1-(3-(((3-amino-6-(2-hydroxyphenyl)pyridazin-4-yl)oxy)methyl)bicyclo[1.1.1]pentane-1-carbonyl)azetidin-3-yl)methoxy)-2-(2,6-dioxopiperidin-3-yl)isoindoline-1,3-dione], on HiBit-BRM fusion protein, the “BRM HiBit Degradation Maximum (%)” value was “B (“B” indicates maximum degradation ≥ 50%)”. Also, the Dmax in assay [1] was more than 50%.

In the case of `Nc1nnc(-c2ccccc2O)cc1OCC12CC(CNC(=O)CCCCCCCOc3cccc4c3C(=O)N(C3CCC(=O)NC3=O)C4=O)(C1)C2` (centres unmarked) [Compound 5, N-[[3-([[3-amino-6-(2-hydroxyphenyl)pyridazin-4-yl]oxy]methyl)bicyclo[1.1.1]pentan-1-yl]methyl]-8-[[2-(2,6-dioxopiperidin-3-yl)-1,3-dioxoisoindol-4-yl]oxy]octanamide], the “BRM HiBit Degradation Maximum (%)” value on HiBit-BRM fusion protein was “C (“C” indicates maximum degradation < 50%)”. Moreover, in assay [1], the Dmax was less than 50%.

In the case of `Nc1nnc(-c2ccccc2O)cc1OCCC12CC(NC(=O)CCN3CC4(C3)CN(c3ccc5c(c3)C(=O)N(C3CCC(=O)NC3=O)C5=O)C4)(C1)C2` (centres unmarked) [Compound 34, N-(3-(2-((3-amino-6-(2-hydroxyphenyl)pyridazin-4-yl)oxy)ethyl)bicyclo[1.1.1]pentan-1-yl)-3-(6-(2-(2,6-dioxopiperidin-3-yl)-1,3-dioxoisoindolin-5-yl)-2,6-diazaspiro[3.3]heptan-2-yl)propanamide], the “BRM HiBit Degradation Maximum (%)” value on HiBit-BRM fusion protein is on record as “C (“C” indicates maximum degradation < 50%)”. Besides, in assay [1], the Dmax was less than 50%.

For the molecule `Nc1nnc(-c2ccccc2O)cc1OCC12CC(CNC(=O)CCCCCCCCNc3ccc4c(c3)C(=O)N(C3CCC(=O)NC3=O)C4=O)(C1)C2` (centres unmarked) [Compound 9, N-[[3-([[3-amino-6-(2-hydroxyphenyl)pyridazin-4-yl]oxy]methyl)bicyclo[1.1.1]pentan-1-yl]methyl]-9-[[2-(2,6-dioxopiperidin-3-yl)-1,3-dioxoisoindol-5-yl]amino]nonanamide], at HiBit-BRM fusion protein, the “BRM HiBit Degradation Maximum (%)” value is on record as “C (“C” indicates maximum degradation < 50%)”. In addition, in assay [1], the Dmax was less than 50%.

As for `Nc1nnc(-c2ccccc2O)cc1OCCC12CC(NC(=O)CCOCCOCCNc3cccc4c3C(=O)N(C3CCC(=O)NC3=O)C4=O)(C1)C2` (centres unmarked) [Compound 27, N-[3-(2-[[3-amino-6-(2-hydroxyphenyl)pyridazin-4-yl]oxy]ethyl)bicyclo[1.1.1]pentan-1-yl]-3-[2-(2-[[2-(2,6-dioxopiperidin-3-yl)-1,3-dioxoisoindol-4-yl]amino]ethoxy)ethoxy]propanamide], the “BRM HiBit Degradation Maximum (%)” value on HiBit-BRM fusion protein is recorded as “C (“C” indicates maximum degradation < 50%)”. In addition, the Dmax in assay [1] is less than 50%.

The record behind these values is patent US12552775B2, “Compounds and uses thereof” (Foghorn Therapeutics Inc., priority 2020, dated 2026).
